14 compounds from US5962476A, “Azolylamine derivative” (Kaken Pharmaceutical Co., Ltd., priority 1993, dated 1999) can be followed below.

In brackets after ≈: the same amount, converted by molar mass. Like-named read-outs stand apart in the source and are kept apart here.

Series [1] concerns Candida albicans ATCC-10259. Description: Minimum inhibitory concentration (MIC), dilution method in SAAMF medium, 35° C. for 2 days. It is filed as cell-based. The following applies: ATCC10259, 48 h, read-out: Minimum inhibitory concentration (MIC), C.a. How it is done:
(§1) MIC of a test compound against Candida albicans ATCC-10259 was determined by the both dilution method employing synthetic amino acid medium (SAAMF medium). Namely, to 3 μl of twofold dilution series of solution containing the test compound was added 300 μl of SAAMF medium inoculated with the fungus at the final concentration of 1×10^3 cells/ml. […] MIC of a test compound against the fungus other than the Candida albicans was determined by the agar dilution method employing Sabouraud's agar medium. That is to say, a test compound was dissolved in dimethyl sulfoxide to give a solution containing the test compound in the concentration of 10 mg/ml. Further, thus obtained solution was diluted with dimethyl sulfoxide according to twofold dilution series and 0.1 ml of the diluted solution was taken into a sterile shale. After 9.9 ml of Sabouraud's agar medium was added thereto, the mixture was sufficiently mixed to give a drug-added plate. The plate was inoculated with 5 μl of a fungus suspension at 10^6 cells/ml by Microplanter (Sakuma Seisakusho Co., Ltd.). As to Aspergillus fumigatus NI-5561 and Cryptococcus neoformans NI-7496, a plate was incubated at 30° C. for 48 hours. As to Trichophyton mentagrophytes KD-01, a plate was incubated at 30° C. for 7 days. […] Clotrimazole and fluconazole were used as comparative control compounds.
Candida albicans ATCC 10259

Series [2] has as its system Cryptococcus neoformans NI-7496. Briefly: Minimum inhibitory concentration (MIC), agar dilution method on Sabouraud's agar medium, 30° C. for 48 hours. The following applies: read-out: Minimum inhibitory concentration (MIC), Cr.n. It is filed as cell-based. The method, then: as §1
Cryptococcus neoformans NI-7496

For series [3], the system named is Aspergillus fumigatus NI-5561. Described as above. The class given is cell-based. The note with it: read-out: Minimum inhibitory concentration (MIC), A.f. How it is done: as §1
Aspergillus fumigatus NI-5561

Series [4] deals with Trichophyton mentagrophytes KD-01. Description: Minimum inhibitory concentration (MIC), agar dilution method on Sabouraud's agar medium, 30° C. for 7 days. It is filed as cell-based. The note with it: KD01, 168 h, read-out: Minimum inhibitory concentration (MIC), T.m. How it is done: as §1, with “compounds. |Trichophyton mentagrophytes KD-01 | T. m.” for “compounds.”
The test system of series [5] is Trichophyton mentagrophytes KD-04. Description: Effect on trichophytosis in guinea pigs. It is filed as in vivo, male Hartley guinea pig. The following applies: guinea pig, topical 1% solution, 0.2 ml once a day for 10 days from 3 days after infection. The method, then:
In the back of male Hartley guinea pig, weighing 400 to 500 g, a portion of skin was unhaired and rubbed lightly with sandpaper, to which 0.1 ml of microconidium suspension of Trichophyton mentagrophytes KD-04 (10^7 cells/ml) was dropped and the skin surface was infected by rubbing it with a glass rod. […] The animal was killed by etherization 2 days after the last treatment and 10 tissue specimens of skin were cut out from the infected portion and incubated on Sabouraud's agar medium for 7 days. Inhibitory ratio was calculated according to the following formula: […] of tissue specimens)}×100 The results are shown in Table 2. Clotrimazole was used as a control compound.

For series [6], the system named is Candida albicans KC-36. Briefly: Therapeutic effect on cutaneous candidiasis in guinea pigs. It is filed as in vivo, male Hartley guinea pig. The following applies: guinea pig, topical 1% solution, 0.2 ml once a day for 3 days from 2 days after infection. How it is done: Inhibitory ratio (%={1-(number of tissue specimens found fungi/total number
of tissue specimens)}×100
In the back of male Hartley guinea pig, weighing 400 to 500 g, a portion of skin was unhaired, to which […] of spore suspension of Candida albicans KC-36 (5×10^7 cells/ml) was dropped and the skin surface was infected by rubbing it with a glass rod. To facilitate the infection, prednisolone was subcutaneously administered at 30 mg/kg on one day before the infection, the day of infection and 4 days after the infection. […] The animal was killed by etherization 2 days after the last treatment and 10 tissue specimens of skin were cut out from the infected portion and incubated on CANDIDA GS AGAR `EIKEN` (EIKEN CHEMICAL CO., LTD. ) for 7 days. The inhibitory ratio was calculated according to the above-mentioned formula. Clotrimazole was employed as a control compound.

A short description of series [7]: Acute toxicity test for mice. It is filed as in vivo, male ICR mouse. The method, then: The compound of Example 1 was dissolved in polyethylene glycol 200 and the resultant solution was applied to a male ICR mouse of 5 weeks old by oral or subcutaneous administration.
[8] abbreviates: Candida albicans ATCC 10259, SAAMF medium, 35° C., 2 days.
Where [9] appears, read: NI7496, Cryptococcus neoformans NI-7496, Sabouraud's agar, 30° C., 48 hours.
The mark [10] stands for this setting: NI5561, Aspergillus fumigatus NI-5561, Sabouraud's agar, 30° C., 48 hours.
[11] abbreviates: Cryptococcus neoformans, NI7496, 48 h.
[12] abbreviates: Aspergillus fumigatus, NI5561, 48 h.

Regarding `C=C1CCN([C@H](C)[C@](O)(Cn2cncn2)c2ccc(F)cc2F)CC1` (racemic) [Example 2, (2RS,3RS)-2-(2,4-difluorophenyl)-3-(4-methylenepiperidino)-1-(1H-1,2,4-triazol-1-yl)butan-2-ol], the MIC in series [1] (setting [8]) was less than 0.025 µg/mL; in series [2] (setting [9]) it was 0.1 µg/mL (≈ 0.287 µM); in series [3] (setting [10]) it was 0.1 µg/mL (≈ 0.287 µM); in series [4], 0.39 µg/mL (≈ 1.12 µM).
In the case of `C=C1CCN([C@H](C)[C@](O)(Cn2ccnc2)c2ccc(F)cc2F)CC1` (racemic) [Example 5, (2RS,3RS)-2-(2,4-difluorophenyl)-3-(4-methylenepiperidino)-1-(1H-imidazol-1-yl)butan-2-ol], the MIC in series [1] (setting [8]) was less than 0.025 µg/mL; in series [2] (setting [9]), 0.025 µg/mL (≈ 0.072 µM); in series [3] (setting [10]), 0.05 µg/mL (≈ 0.144 µM); in series [4], 0.1 µg/mL (≈ 0.288 µM).
The like results for `CC=C1CCN([C@H](C)[C@](O)(Cn2cncn2)c2ccc(F)cc2F)CC1` (racemic) [Example 8, (2RS,3RS)-2-(2,4-difluorophenyl)-3-(4-ethylidenepiperidino)-1-(1H-1,2,4-triazol-1-yl)butan-2-ol] were, in that order, less than 0.025 µg/mL, 0.1 µg/mL (≈ 0.276 µM), 0.2 µg/mL (≈ 0.552 µM) and 0.78 µg/mL (≈ 2.15 µM).
The like results for `C[C@@H](N1CCC(=Cc2ccccc2)CC1)[C@](O)(Cn1cncn1)c1ccc(F)cc1F` (racemic) [Example 10, (2RS,3RS)-2-(2,4-difluorophenyl)-3-(4-benzylidenepiperidino)-1-(1H-1,2,4-triazol-1-yl)butan-2-ol] were, in that order, less than 0.025 µg/mL, 0.025 µg/mL (≈ 0.0589 µM), 0.1 µg/mL (≈ 0.236 µM) and 0.39 µg/mL (≈ 0.919 µM).
`Clc1ccccc1C(c1ccccc1)(c1ccccc1)n1ccnc1` [Clotrimazole, reference compound]: the MIC was found to be 0.025 µg/mL (≈ 0.0725 µM) in series [1] (Candida albicans), 0.2 µg/mL (≈ 0.58 µM) in series [2] (setting [11]), 0.78 µg/mL (≈ 2.26 µM) in series [3] (setting [12]) and 0.39 µg/mL (≈ 1.13 µM) in series [4]. Further, the Inhibitory ratio in series [5] is listed as 20%; in series [6] it was 96%.
Regarding `C=C1CCN([C@H](C)[C@](O)(Cn2cncn2)c2ccc(F)cc2F)CC1` [Example 1, (2R,3R)-2-(2,4-difluorophenyl)-3-(4-methylenepiperidino)-1-(1H-1,2,4-triazol-1-yl)butan-2-ol], the MIC is less than 0.025 µg/mL in series [1] (setting [8]), 0.05 µg/mL (≈ 0.144 µM) in series [2] (setting [9]), 0.05 µg/mL (≈ 0.144 µM) in series [3] (setting [10]) and 0.39 µg/mL (≈ 1.12 µM) in series [4]. For the same compound, the Inhibitory ratio in series [5] and in series [6] was 98% in each case. Further, the “Number of died mice/number of tested mice” value is 0/3 in series [7] (oral, 500 mg/kg); 0/3 in series [7] (oral, 1000 mg/kg); 0/3 in series [7] (subcutaneous, 125 mg/kg); 0/3 in series [7] (subcutaneous, 250 mg/kg); 0/3 in series [7] (subcutaneous, 500 mg/kg); 0/3 in series [7] (subcutaneous, 1000 mg/kg).
On to `C=C1CCN([C@@H](C)[C@@](O)(Cn2cncn2)c2ccc(F)cc2F)CC1` [Example 3, (2S,3S)-2-(2,4-difluorophenyl)-3-(4-methylenepiperidino)-1-(1H-1,2,4-triazol-1-yl)butan-2-ol], for which the MIC in series [1] (setting [8]) is 0.39 µg/mL (≈ 1.12 µM); in series [2] (setting [9]), 0.78 µg/mL (≈ 2.24 µM); in series [3] (setting [10]) it was more than 100 µg/mL; in series [4] it was 50 µg/mL (≈ 144 µM).
The like results for `C=C1CCN([C@H](C)[C@](O)(Cn2ccnc2)c2ccc(F)cc2F)CC1` [Example 4, (2R,3R)-2-(2,4-difluorophenyl)-3-(4-methylenepiperidino)-1-(1H-imidazol-1-yl)butan-2-ol] were, in that order, less than 0.025 µg/mL, less than 0.025 µg/mL, 0.05 µg/mL (≈ 0.144 µM) and less than 0.025 µg/mL.
For `C=C1CCN([C@H](C)[C@](O)(Cn2cncn2)c2ccc(Cl)cc2)CC1` [Example 6, (2R,3R)-2-(4-chlorophenyl)-3-(4-methylenepiperidino)-1-(1H-1,2,4-triazol-1-yl)butan-2-ol], the MIC in series [1] (setting [8]) is less than 0.0125 µg/mL; in series [2] (setting [9]) it was 0.2 µg/mL (≈ 0.577 µM); in series [3] (setting [10]) it was 6.25 µg/mL (≈ 18 µM); in series [4], 3.13 µg/mL (≈ 9.02 µM).
The like results for `C=C1CCN([C@H](C)[C@](O)(Cn2cncn2)c2ccc(Cl)cc2Cl)CC1` [Example 7, (2R,3R)-2-(2,4-dichlorophenyl)-3-(4-methylenepiperidino)-1-(1H-1,2,4-triazol-1-yl)butan-2-ol] were, in that order, 0.025 µg/mL (≈ 0.0656 µM), 0.05 µg/mL (≈ 0.131 µM), 0.39 µg/mL (≈ 1.02 µM) and 0.39 µg/mL (≈ 1.02 µM).
The like results for `C=CC=C1CCN([C@H](C)[C@](O)(Cn2cncn2)c2ccc(F)cc2F)CC1` [Example 12, (2R,3R)-2-(2,4-difluorophenyl)-3-(4-propenylidenepiperidino)-1-(1H-1,2,4-triazol-1-yl)butan-2-ol] were, in that order, less than 0.025 µg/mL, 0.1 µg/mL (≈ 0.267 µM), 0.2 µg/mL (≈ 0.534 µM) and 0.78 µg/mL (≈ 2.08 µM).
For `C=C1CCCN([C@H](C)[C@](O)(Cn2cncn2)c2ccc(F)cc2F)C1` [Example 13, (2R,3R)-2-(2,4-difluorophenyl)-3-(3-methylenepiperidino)-1-(1H-1,2,4-triazol-1-yl)butan-2-ol] the same measures were 0.1 µg/mL (≈ 0.287 µM), 0.39 µg/mL (≈ 1.12 µM), 0.78 µg/mL (≈ 2.24 µM) and 1.56 µg/mL (≈ 4.48 µM).
Regarding `C=C1CCN([C@H](C)[C@](O)(Cn2cncn2)c2ccc(F)cc2F)C1` [Example 14, (2R,3R)-2-(2,4-difluorophenyl)-3-(3-methylenepyrrolidino)-1-(1H-1,2,4-triazol-1-yl)butan-2-ol], the MIC is less than 0.025 µg/mL in series [1] (setting [8]), 0.39 µg/mL (≈ 1.17 µM) in series [2] (setting [9]), 0.39 µg/mL (≈ 1.17 µM) in series [3] (setting [10]) and 0.78 µg/mL (≈ 2.33 µM) in series [4].
Turning to `OC(Cn1cncn1)(Cn1cncn1)c1ccc(F)cc1F` [Fluconazole, reference compound], the MIC is 0.39 µg/mL (≈ 1.27 µM) in series [1] (Candida albicans), 12.5 µg/mL (≈ 40.8 µM) in series [2] (setting [11]), more than 100 µg/mL in series [3] (setting [12]) and more than 100 µg/mL in series [4].
